Assay results: patent US4083987A, “4-Imino-1,3-diazabicyclo-(3.1.0)-hexan-2-one as a cancerostat and immuno-stimulant” (Boehringer Mannheim GmbH, priority 1975, dated 1978)

What was measured:
[1] = system: antibody-forming spleen cells; assay: Number of antibody-forming spleen cells by Jerne's method after intravenous administration; assay type: in vivo, mice; conditions: three days; for number of antibody-forming spleen cells: mice immunized with sheep erythrocytes, control 4,600; for antibody-forming spleen cells, % of the control: mice
Description: 20 male white mice with a body weight of 20 to 25 g were each immunized with 1 ml preserved sheep erythrocytes (1 ml contains 5 × 10^8 erythrocytes). On the same day, 4-imino-1,3-diazabicyclo[3.1.0]hexan-2-oneor a comparative active material, dissolved in 5 ml physiological saline/kg. mouse body weight, were administered intravenously. For control purposes, 20 animals were also immunized with 1 ml sheep erythrocytes and treated with 5 ml/kg physiological saline. Three days after administration, the spleens of the animals were removed under sterile conditions and the number of antibody-forming spleen cells determined according to Jerne's technique. The individual values were determined.

[2] = system: Walker sarcoma 256; assay: Cancerostatic effectiveness: inhibition of tumor growth of Walker sarcoma 256 after a single administration; assay type: in vivo, Sprague-Dawley rats; conditions: for % inhibition of the growth of Walker sarcoma 256: single administration, tumor weight after 10 days
Description: Sprague-Dawley rats with a body weight of 80 to 120 g and an age of 6 to 8 weeks were subcutaneously inoculated in the neck with tumor cells. In each case, there was used 0.1 ml of an aqueous suspension of about 10^6 tumor cells of the Walker sarcoma 256 (solid, rat).
4-Imino-1,3-diazabicyclo[3.1.0]hexan-2-one was dissolved in physiological saline solution (in each case, the desired amount in 5 ml solution/kg body weight of experimental animal). 6 Hours after inoculation of the animals, these solutions were administered intravenously or orally by means of a stomach tube. The control animals received 5 ml/kg body weight of physiological saline. 20 experimental animals and 20 control animals were used per experiment. The animals were sacrificed with ether after 10 days, the tumors extirpated and the weight of the tumors of the control group compared with those of the experimental group.

[3] = system: leukocytes; assay: Immunity-stimulating action: corpuscular blood components (leukocytes, lymphocytes, erythrocytes) after a single intravenous administration; assay type: in vivo, Sprague-Dawley rats; conditions: for number of leukocytes/mm^3: third day, control 7,300
Description: The active material, dissolved in 5 ml physiological saline, was administered intravenously into a vein in the tails of 8 Sprague-Dawley rats with an average body weight of 200 to 250 g. As controls, there were used 8 rats which were only treated with 5 ml physiological saline per kg. body weight. In the following days, 1 to 2 drops of blood were taken from a tail vein and the corpuscular blood components determined. The average values were determined statistically from the 8 values of the individual animals.

[4] = Acute toxicity (LD50), rats; conditions: rat, in vivo, single intravenous dose
[5] = Solubility in water, physiological saline and aqueous alkali metal hydroxide solutions; assay type: physicochemical
[6] = Stability; assay type: physicochemical
[7] = in vivo; conditions: mouse, iv
[8] = Acute toxicity (LD50), mice; conditions: mouse, in vivo, po
[9] = single intravenous, rats, in words

In the case of `O=P1(N(CCCl)CCCl)NCCCO1` (centres unmarked) [cyclophosphamide], the “number of antibody-forming spleen cells” value ([1]; 125.0 mg/kg intravenous) is reported as 460 spleen cells and the “antibody-forming spleen cells, % of the control” value (“antibody-forming spleen cells, %” below) ([1]; 125.0 mg/kg intravenous) is reported as 10 % of the control.

In the case of phytohaemagglutinin, the “number of antibody-forming spleen cells” value ([1]; 500.0 mg/kg intravenous) is reported as 1,400 spleen cells and the “antibody-forming spleen cells, %” value ([1]; 500.0 mg/kg intravenous) is reported as 30 % of the control.

For `N=C1NC(=O)N2CC12` (centres unmarked) [4-imino-1,3-diazabicyclo-[3.1.0]hexan-2-one], the tumor growth ([2]; intravenous and oral administration) was “significantly inhibited”, the “% inhibition of the growth of Walker sarcoma 256” value (from here on “% inhibition”) ([2]; intravenous, 0.1 mg/kg) was 7.5% and the “% inhibition” value ([2]; intravenous, 1.0 mg/kg) was 17.5%. The “% inhibition” value ([2]; intravenous, 10.0 mg/kg) was 49.5%, the “% inhibition” value ([2]; intravenous, 100.0 mg/kg) was 31.0% and the “% inhibition” value ([2]; intravenous, 200.0 mg/kg) was 39.5%. For the same compound, the “% inhibition” value ([2]; oral, 5.0 mg/kg) was 20.0%, the “% inhibition” value ([2]; oral, 125.0 mg/kg) was 62.0% and the “number of leukocytes/mm^3” value ([3]; 2 mg/kg rat, single intravenous) was 10,300 leukocytes/mm^3. The “number of leukocytes/mm^3” value ([3]; 5 mg/kg rat, single intravenous) was 9,800 leukocytes/mm^3, the “number of leukocytes/mm^3” value ([3]; 10 mg/kg rat, single intravenous) was 10,800 leukocytes/mm^3 and the “number of leukocytes/mm^3” value ([3]; 20 mg/kg rat, single intravenous) was 12,300 leukocytes/mm^3. The “number of leukocytes/mm^3” value ([3]; 40 mg/kg rat, single intravenous) was 10,800 leukocytes/mm^3, the “number of leukocytes/mm^3” value ([3]; 75 mg/kg rat, single intravenous) was 11,800 leukocytes/mm^3 and the “number of leukocytes/mm^3” value ([3]; 150 mg/kg rat, single intravenous) was 8,000 leukocytes/mm^3. The “number of leukocytes/mm^3” value ([3]; 400 mg/kg rat, single intravenous) was 6,500 leukocytes/mm^3, the “dosage necessary for immunity stimulation” value ([3]; deduced from the experiments, all at once or in several doses) was 1 to 50 mg/kg body weight and the “time after which the effect slowly decreases” value ([3]; immunity stimulation) was “about 2 weeks”. The number of leukocytes [3, 9] was “increased considerably”, the “percentage proportion of the lymphocytes” value [3, 9] was “increased” and the number of erythrocytes ([3]; single intravenous, rats, whole experimental period) was “did not change significantly”. For the same compound, the “time until the values of the control animals were again reached” value ([3]; single intravenous, rats, only after the expiry of) was 20 to 25 days, the “number of antibody-forming spleen cells” value ([1]; 2.5 mg/kg intravenous) was 23,000 spleen cells and the “antibody-forming spleen cells, %” value ([1]; 2.5 mg/kg intravenous) was 500 % of the control. The LD50 [4] was 660 mg/kg, the water solubility [5] was “good water solubility” and the solubility ([5]; physiological saline and aqueous alkali metal hydroxide solutions) was “very readily soluble”. For the same compound, the acid stability ([6]; acid) was “acid labile”, the “stability in dry form” value ([6]; dry form) was “stable in dry form” and the LD50 [7] was 750 mg/kg. The LD50 [8] was > 4000 mg/kg.
